From ChEMBL document CHEMBL3421628, “Discovery of Intestinal Targeted TGR5 Agonists for the Treatment of Type 2 Diabetes” (J Med Chem, 2015)
Values belong to the molecule of their own block, whether it stands above or below them.

Experiments:
[1] = in vitro; conditions: human, Caco-2
[2] = in vitro; conditions: human, Caco-2; remark: listed apart in the source
[3] = in vitro; conditions: human, Caco-2; remark: listed apart in the source
[4] = in vitro; conditions: human, Caco-2; remark: listed apart in the source
[5] = test system: Rattus norvegicus; experiment: Cmax in Sprague-Dawley rat assessed as 3-(2,5-Dichloro-4-((3-(4-cyclopropyl-1,2,3,4-tetrahydroquinoxaline-1-carbonyl)pyridin-4-yl)oxy)phenyl)propanoic acid level at 5 mg/kg, po by LC-MS/MS method; assay type: ADME, organism-based; parameters: dose 5 mg/kg, route oral; conditions: in vivo
[6] = test system: Rattus norvegicus; experiment: Mean residence time in Sprague-Dawley rat assessed as 3-(2,5-Dichloro-4-((3-(4-cyclopropyl-1,2,3,4-tetrahydroquinoxaline-1-carbonyl)pyridin-4-yl)oxy)phenyl)propanoic acid level at 5 mg/kg, po by LC-MS/MS method; assay type: ADME, organism-based; parameters: dose 5 mg/kg, route oral; conditions: in vivo
[7] = Tmax in Sprague-Dawley rat at 5 mg/kg, po by LC-MS/MS method; assay type: ADME, organism-based; parameters: dose 5 mg/kg, route oral; conditions: in vivo
[8] = AUC (0 to t) in Sprague-Dawley rat at 5 mg/kg, po by LC-MS/MS method; assay type: ADME, organism-based; parameters: dose 5 mg/kg, route oral; conditions: plasma
[9] = test system: Rattus norvegicus; experiment: Tmax in Sprague-Dawley rat assessed as 3-(2,5-Dichloro-4-((3-(4-cyclopropyl-1,2,3,4-tetrahydroquinoxaline-1-carbonyl)pyridin-4-yl)oxy)phenyl)propanoic acid level at 5 mg/kg, po by LC-MS/MS method; assay type: ADME, organism-based; parameters: dose 5 mg/kg, route oral; conditions: in vivo
[10] = Mean residence time in Sprague-Dawley rat at 5 mg/kg, po by LC-MS/MS method; assay type: ADME, organism-based; parameters: dose 5 mg/kg, route oral; conditions: in vivo
[11] = test system: Rattus norvegicus; experiment: AUC (0 to infinity) in Sprague-Dawley rat assessed as 3-(2,5-Dichloro-4-((3-(4-cyclopropyl-1,2,3,4-tetrahydroquinoxaline-1-carbonyl)pyridin-4-yl)oxy)phenyl)propanoic acid level at 5 mg/kg, po by LC-MS/MS method; assay type: ADME, organism-based, Plasma; parameters: time infinity, dose 5 mg/kg, route oral; conditions: in vivo
[12] = test system: Rattus norvegicus; experiment: Half life in Sprague-Dawley rat assessed as 3-(2,5-Dichloro-4-((3-(4-cyclopropyl-1,2,3,4-tetrahydroquinoxaline-1-carbonyl)pyridin-4-yl)oxy)phenyl)propanoic acid level at 5 mg/kg, po by LC-MS/MS method; assay type: ADME, organism-based; parameters: dose 5 mg/kg, route oral; conditions: in vivo
[13] = Half life in Sprague-Dawley rat at 5 mg/kg, po by LC-MS/MS method; assay type: ADME, organism-based; parameters: dose 5 mg/kg, route oral; conditions: in vivo
[14] = Cmax in Sprague-Dawley rat at 5 mg/kg, po by LC-MS/MS method; assay type: ADME, organism-based; parameters: dose 5 mg/kg, route oral; conditions: in vivo
[15] = AUC (0 to infinity) in Sprague-Dawley rat at 5 mg/kg, po by LC-MS/MS method; assay type: ADME, organism-based; parameters: time infinity, dose 5 mg/kg, route oral; conditions: plasma
[16] = test system: Rattus norvegicus; experiment: AUC (0 to t) in Sprague-Dawley rat assessed as 3-(2,5-Dichloro-4-((3-(4-cyclopropyl-1,2,3,4-tetrahydroquinoxaline-1-carbonyl)pyridin-4-yl)oxy)phenyl)propanoic acid level at 5 mg/kg, po by LC-MS/MS method; assay type: ADME, organism-based, Plasma; parameters: dose 5 mg/kg, route oral; conditions: in vivo
[17] = Drug level in ICR mouse gall bladder at 150 mg/kg, po after 2 hrs by LC-MS/MS method; assay type: ADME, organism-based; parameters: dose 150 mg/kg, route oral; conditions: in vivo
[18] = Drug level in ICR mouse bile at 150 mg/kg, po after 2.5 hrs by LC-MS/MS method; assay type: ADME, organism-based; parameters: dose 150 mg/kg, route oral; conditions: read-out: Drug uptake
[19] = Drug level in ICR mouse bile at 150 mg/kg, po after 2 hrs by LC-MS/MS method; assay type: ADME, organism-based; parameters: dose 150 mg/kg, route oral; conditions: read-out: Drug uptake
[20] = Drug level in ICR mouse gall bladder at 150 mg/kg, po after 2.5 hrs by LC-MS/MS method; assay type: ADME, organism-based; parameters: dose 150 mg/kg, route oral; conditions: in vivo
[21] = test system: Rattus norvegicus; experiment: Drug metabolism in Sprague-Dawley rat assessed as 3-(2,5-Dichloro-4-((3-(4-cyclopropyl-1,2,3,4-tetrahydroquinoxaline-1-carbonyl)pyridin-4-yl)oxy)phenyl)propanoic acid level at 20 mg/kg, po after 15 mins to 24 hrs by LC-MS/MS method; assay type: ADME, organism-based; parameters: dose 20 mg/kg, route oral; conditions: in vivo
[22] = Drug level in ICR mouse bile at 150 mg/kg, po after 3.5 hrs by LC-MS/MS method; assay type: ADME, organism-based; parameters: dose 150 mg/kg, route oral; conditions: read-out: Drug uptake
[23] = Drug metabolism in ICR mouse gall bladder assessed as 3-(2,5-Dichloro-4-((3-(4-cyclopropyl-1,2,3,4-tetrahydroquinoxaline-1-carbonyl)pyridin-4-yl)oxy)phenyl)propanoic acid level at 150 mg/kg, po after 4 hrs by LC-MS/MS method; assay type: ADME, organism-based; parameters: dose 150 mg/kg, route oral; conditions: in vivo
[24] = Drug level in ICR mouse plasma at 150 mg/kg, po after 2 hrs by LC-MS/MS method; assay type: ADME, organism-based; parameters: dose 150 mg/kg, route oral
[25] = Drug level in ICR mouse gall bladder at 150 mg/kg, po after 3.5 hrs by LC-MS/MS method; assay type: ADME, organism-based; parameters: dose 150 mg/kg, route oral; conditions: in vivo
[26] = Drug level in ICR mouse plasma at 150 mg/kg, po after 2.5 hrs by LC-MS/MS method; assay type: ADME, organism-based; parameters: dose 150 mg/kg, route oral
[27] = Drug level in ICR mouse gall bladder at 150 mg/kg, po after 4 hrs by LC-MS/MS method; assay type: ADME, organism-based; parameters: dose 150 mg/kg, route oral; conditions: in vivo
[28] = test system: Rattus norvegicus; experiment: Drug level in Sprague-Dawley rat at 20 mg/kg, po after 15 mins to 24 hrs by LC-MS/MS method; assay type: ADME, organism-based; parameters: dose 20 mg/kg, route oral; conditions: in vivo
[29] = Drug level in ICR mouse plasma at 150 mg/kg, po after 3.5 hrs by LC-MS/MS method; assay type: ADME, organism-based; parameters: dose 150 mg/kg, route oral

SMILES: O=C(c1cnccc1Oc1cc(Cl)ccc1Cl)N1CCN(C2CC2)c2ccccc21
- Papp A→B at 20 µM [1]: 6.75 ×10⁻⁶ cm/s
- Papp B→A at 20 µM [2]: 5.58 ×10⁻⁶ cm/s
- recovery at 20 µM [3]: 69.4%
- recovery at 20 µM [4]: 46.8%

- Cmax [5]: 15.5 ng/mL
- MRT [6]: 5.47 h
- Tmax [7]: 0.44 h
- AUC(0-t) [8]: 23.9 ng·h/mL
- Tmax [9]: 3.5 h
- MRT [10]: 2.37 h
- AUC [11]: 241 ng·h/mL
- t1/2 [12]: 1.77 h
- half-life [13]: 1.56 h
- Cmax [14]: 13.5 ng/mL
- AUC(0-inf) [15]: 39.7 ng·h/mL
- AUCt [16]: 84.9 ng·h/mL
SMILES: O=C(O)CNC(=O)CCc1cc(Cl)c(Oc2ccncc2C(=O)N2CCN(C3CC3)c3ccccc32)cc1Cl

- Drug uptake [17]: Not Active
- concentration at 2.5 h [18]: 3.5 nM
- concentration at 2 h [19]: 3.6 nM
- Drug uptake [20]: Not Active
- Papp A→B at 20 µM [1]: 0.04 ×10⁻⁶ cm/s
- Drug metabolism [21]: metabolite_notdetected
- concentration at 3.5 h [22]: 3.8 nM
- Drug metabolism [23]: metabolite_notdetected
- Papp B→A at 20 µM [2]: 2.24 ×10⁻⁶ cm/s
- concentration at 2 h [24]: 4.4 nM
- recovery at 20 µM [3]: 91.2%
- Drug uptake [25]: Not Active
- concentration at 2.5 h [26]: 6.9 nM
- Drug uptake [27]: < 3 ng
- recovery at 20 µM [4]: 99.5%
- Drug uptake [28]: < 3 ng/mL
- concentration at 3.5 h [29]: 2.9 nM
SMILES: O=C(CCc1cc(Cl)c(Oc2ccncc2C(=O)N2CCN(C3CC3)c3ccccc32)cc1Cl)NCCOCCOCCOCCOCCOCCOCCOCCOCCNC(=O)CCc1cc(Cl)c(Oc2ccncc2C(=O)N2CCN(C3CC3)c3ccccc32)cc1Cl

- Papp A→B at 20 µM [1]: 0.1 ×10⁻⁶ cm/s
- Papp B→A at 20 µM [2]: 15.8 ×10⁻⁶ cm/s
- recovery at 20 µM [3]: 95.8%
- recovery at 20 µM [4]: 101%
SMILES: C[C@H]1O[C@@H](O[C@H]2[C@@H](O)C[C@H](O[C@H]3[C@@H](O)C[C@H](O[C@H]4CC[C@@]5(C)[C@H](CC[C@@H]6[C@@H]5C[C@@H](O)[C@]5(C)[C@@H](C7=CC(=O)OC7)CC[C@]65O)C4)O[C@@H]3C)O[C@@H]2C)C[C@H](O)[C@@H]1O [DIGOXIN]
